Assay results published in patent publication US12071434B2, “Heterocyclic compound” (Takeda Pharmaceutical Company Limited, priority 2018, dated 2024).
Blank lines part the entries; values can stand above or below the compound they belong to.

Target: T1, human orexin type 2 receptor (Homo sapiens, UniProt O43614)
T1 construct: expressed in transfected cells
T1 sequence (O43614 1-444): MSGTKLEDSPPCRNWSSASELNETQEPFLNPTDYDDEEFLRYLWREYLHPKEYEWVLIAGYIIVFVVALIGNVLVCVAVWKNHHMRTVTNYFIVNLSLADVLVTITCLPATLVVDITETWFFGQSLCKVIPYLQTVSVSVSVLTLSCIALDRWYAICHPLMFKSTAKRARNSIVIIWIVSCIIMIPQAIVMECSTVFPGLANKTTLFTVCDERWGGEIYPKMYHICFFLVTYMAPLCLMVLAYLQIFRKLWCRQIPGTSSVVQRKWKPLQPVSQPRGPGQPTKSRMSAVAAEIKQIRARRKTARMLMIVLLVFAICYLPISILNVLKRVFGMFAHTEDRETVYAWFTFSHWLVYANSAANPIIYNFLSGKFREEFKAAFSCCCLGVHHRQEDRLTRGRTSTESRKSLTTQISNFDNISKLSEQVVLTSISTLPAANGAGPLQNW
Assay: Measurement of orexin type 2 receptor agonist activity (calcium fluorescence, Fluo-4 AM, FDSS) in CHO cells forcibly expressing human OX2 receptor
Type: cell-based
Settings: test compound 3 μM, DMSO = 0%, orexin A (human) 10 nM = 100%
How it was run: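 CHO-dhfr cells stably expressing human OX2 receptor, loaded with Fluo-4 AM plus probenecid for 30 min at 37 °C, then 30 min at room temperature. Calcium fluorescence read for about 2 min 40 s after compound addition. Activity (%) scaled between DMSO (0%) and 10 nM human orexin A (100%).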

SMILES: CC(C)n1ccc2c(c1=O)[C@@H](Cc1cccc(-c3cccc(F)c3)c1)[C@@H](NS(C)(=O)=O)CC2 (racemic) [Example 74, rac-N-[(7S,8R)-8-[(3′-fluoro[1,1′-biphenyl]-3-yl)methyl]-1-oxo-2-(propan-2-yl)-1,2,5,6,7,8-hexahydroisoquinolin-7-yl]methanesulfonamide]
0X2R agonist activity (3 μM, %): 91%

SMILES: Cc1ccc2n(c1=O)[C@@H](Cc1cccc(-c3cc(F)cc(F)c3)n1)[C@@H](NS(C)(=O)=O)CC2 (racemic) [Example 60, rac-N-[(3S,4S)-4-{[6-(3,5-difluorophenyl)pyridin-2-yl]methyl}-7-methyl-6-oxo-1,3,4,6-tetrahydro-2H-quinolizin-3-yl]methanesulfonamide]
0X2R agonist activity (3 μM, %): 83%

SMILES: CC(C)(O)c1ccc2n(c1=O)[C@@H](Cc1cccc(-c3ccccc3)c1)[C@@H](NS(C)(=O)=O)CC2 (racemic) [Example 33, rac-N-[(3S,4S)-4-[([1,1′-biphenyl]-3-yl)methyl]-7-(2-hydroxypropan-2-yl)-6-oxo-1,3,4,6-tetrahydro-2H-quinolizin-3-yl]methanesulfonamide]
0X2R agonist activity (3 μM, %): 87%

SMILES: Cc1cc(C)c(=O)n2c1CC[C@H](NS(C)(=O)=O)[C@@H]2Cc1cccc(-c2ccccc2)c1 (racemic) [Example 13, rac-N-{(3S,4S)-4-[([1,1′-biphenyl]-3-yl)methyl]-7,9-dimethyl-6-oxo-1,3,4,6-tetrahydro-2H-quinolizin-3-yl}methanesulfonamide]
0X2R agonist activity (3 μM, %): 112%

SMILES: CCS(=O)(=O)NC1CCc2ccc(C)c(=O)n2C1Cc1cccc(-c2ccccc2)c1 (racemic) [Example 11, rac-N-{(3S,4S)-4-[([(1,1′-biphenyl]-3-yl)methyl]-7-methyl-6-oxo-1,3,4,6-tetrahydro-2H-quinolizin-3-yl}ethanesulfonamide]
0X2R agonist activity (3 μM, %): 106%

SMILES: Cc1ccc2n(c1=O)[C@@H](Cc1csc(-c3ccccc3)n1)[C@@H](NS(C)(=O)=O)CC2 (racemic) [Example 58, rac-N-{(3S,4S)-7-methyl-6-oxo-4-[(2-phenyl-1,3-thiazol-4-yl)methyl]-1,3,4,6-tetrahydro-2H-quinolizin-3-yl}methanesulfonamide]
0X2R agonist activity (3 μM, %): 92%

SMILES: CCn1c(C)nc2c(c1=O)C(Cc1cccc(-c3ccccc3)c1)C(NS(C)(=O)=O)CC2 (racemic) [Example 71, rac-N-{(5R,6S)-5-[([1,1′-biphenyl]-3-methyl]-3-ethyl-2-methyl-4-oxo-3,4,5,6,7,8-hexahydroquinazolin-6-yl}methanesulfonamide]
0X2R agonist activity (3 μM, %): 90%

SMILES: CCc1ccc2n(c1=O)C(Cc1cccc(-c3ccccc3)c1)C(NS(C)(=O)=O)CC2 (racemic) [Example 27, rac-N-{(3S,4S)-4-[([1,1′-biphenyl]-3-yl)methyl]-7-ethyl-6-oxo-1,3,4,6-tetrahydro-2H-quinozilin-3-yl}methanesulfonamide]
0X2R agonist activity (3 μM, %): 99%

SMILES: Cc1cc(F)c2n(c1=O)[C@@H](Cc1cccc(-c3ccccc3)c1)[C@@H](NS(C)(=O)=O)CC2 (racemic) [Example 21, rac-N-{(3S,4S)-4-[([1,1′-biphenyl]-3-yl)methyl]-9-fluoro-7-methyl-6-oxo-1,3,4,6-tetrahydro-2H-quinolizin-3-yl}methanesulfonamide]
0X2R agonist activity (3 μM, %): 101%

SMILES: Cc1ccc2n(c1=O)[C@@H](Cc1csc(-c3cccc(F)c3)n1)[C@@H](NS(C)(=O)=O)CC2 (racemic) [Example 64, rac-N-[(3S,4S)-4-{[2-(3-fluorophenyl)-1,3-thiazol-4-yl]methyl}-7-methyl-6-oxo-1,3,4,6-tetrahydro-2H-quinolizin-3-yl]methanesulfonamide]
0X2R agonist activity (3 μM, %): 100%

SMILES: COc1ccc2n(c1=O)[C@@H](Cc1cccc(-c3ccccc3)c1)[C@@H](NS(C)(=O)=O)CC2 (racemic) [Example 34, rac-N-{(3S,4S)-4-[([1,1′-biphenyl]-3-yl)methyl]-7-methoxy-6-oxo-1,3,4,6-tetrahydro-2H-quinolizin-3-yl}methanesulfonamide]
0X2R agonist activity (3 μM, %): 105%

Now from value to compound:

0X2R agonist activity (3 μM, %): 91%
SMILES: CC(C)n1cnc2c(c1=O)[C@@H](Cc1cccc(-c3cccc(F)c3F)c1F)[C@@H](NS(=O)(=O)CF)CC2 [Example 196, 1-fluoro-N-{(5R,6S)-4-oxo-3-(propan-2-yl)-5-[(2,2′,3′-trifluoro[1,1′-biphenyl]-3-yl)methyl]-3,4,5,6,7,8-hexahydroquinazolin-6-yl}methanesulfonamide]

0X2R agonist activity (3 μM, %): 90%
SMILES: CC(C)n1cnc2c(c1=O)[C@@H](Cc1cccc(-c3cc(F)cc(F)c3)c1F)[C@@H](NS(=O)(=O)CF)CC2 [Example 199, 1-fluoro-N-{(5R,6S)-4-oxo-3-(propan-2-yl)-5-[(2,3′,5′-trifluoro[1,1′-biphenyl]-3-yl)methyl]-3,4,5,6,7,8-hexahydroquinazolin-6-yl}methanesulfonamide]

0X2R agonist activity (3 μM, %): 90%
SMILES: CC(C)n1cnc2c(c1=O)C(Cc1cccc(-c3cccc(F)c3F)c1)C(NS(=O)(=O)C1(F)CC1)CC2 (stereo not drawn) [Example 191, rel-N-{5-[(2′,3′-difluoro[1,1′-biphenyl]-3-yl)methyl]-4-oxo-3-(propan-2-yl)-3,4,5,6,7,8-hexahydroquinazolin-6-yl}-1-fluorocyclopropane-1-sulfonamide]

0X2R agonist activity (3 μM, %): 90%
SMILES: CCc1cccc(C[C@H]2[C@@H](NS(C)(=O)=O)CCc3ccc(CC)c(=O)n32)c1 (racemic) [Example 135, rac-N-{(3S,4S)-7-ethyl-4-[(3-ethylphenyl)methyl]-6-oxo-1,3,4,6-tetrahydro-2H-quinolizin-3-yl}methanesulfonamide]

0X2R agonist activity (3 μM, %): 89%
SMILES: CCc1ccc2n(c1=O)[C@@H](Cc1cccc(-c3ccccc3)c1F)[C@@H](NS(C)(=O)=O)CC2 (racemic) [Example 104, rac-N-{(3S,4S)-7-ethyl-4-[(2-fluoro[1,1′-biphenyl]-3-yl)methyl]-6-oxo-1,3,4,6-tetrahydro-2H-quinolizin-3-yl}methanesulfonamide]

0X2R agonist activity (3 μM, %): 98%
SMILES: CC(C)n1cnc2c(c1=O)[C@@H](Cc1cccc(-c3cccc(F)c3F)c1F)[C@@H](NS(=O)(=O)C1(F)CC1)CC2 [Example 184, 1-fluoro-N-{(5R,6S)-4-oxo-3-(propan-2-yl)-5-[(2,2′,3′-trifluoro[1,1′-biphenyl]-3-yl)methyl]-3,4,5,6,7,8-hexahydroquinazolin-6-yl}cyclopropane-1-sulfonamide]

0X2R agonist activity (3 μM, %): 95%
SMILES: CC(C)n1c(=O)c2c(n1C)CCC(NS(C)(=O)=O)C2Cc1cccc(-c2ccccc2)c1 [Example 208, rel-N-[(4aR,5S)-4-[([1,1′-biphenyl]-3-yl)methyl]-1-methyl-3-oxo-2-(propan-2-yl)-2,3,4,5,6,7-hexahydro-1H-indazol-5-yl]methanesulfonamide]

0X2R agonist activity (3 μM, %): 95%
SMILES: CC(C)n1cnc2c(c1=O)[C@@H](Cc1cccc(-c3ccccc3)c1)[C@@H](NS(C)(=O)=O)CC2 (relative stereo) [Example 99, rel-N-[(5R,6S)-5-[([1,1′-biphenyl]-3-yl)methyl]-4-oxo-3-(propan-2-yl)-3,4,5,6,7,8-hexahydroquinazolin-6-yl]methanesulfonamide]

0X2R agonist activity (3 μM, %): 100%
SMILES: CCS(=O)(=O)N[C@H]1CCc2ncn(C(C)C)c(=O)c2[C@H]1Cc1cccc(-c2cc(C)cc(C)n2)c1 (racemic) [Example 102, rac-N-[(5R,6S)-5-{[3-(4,6-dimethylpyridin-2-yl)phenyl]methyl}-4-oxo-3-(propan-2-yl)-3,4,5,6,7,8-hexahydroquinazolin-6-yl]ethanesulfonamide]

0X2R agonist activity (3 μM, %): 100%
SMILES: [2H]C([2H])([2H])C([2H])([2H])n1ccc2c(c1=O)C(Cc1cccc(-c3cccc(F)c3F)c1)C(NS(C)(=O)=O)CC2 (racemic) [Example 147, rac-N-{(7S,8R)-8-[(2′,3′-difluoro[1,1′-biphenyl]-3-yl)methyl]-2-(~2~H_5_)ethyl-1-oxo-1,2,5,6,7,8-hexahydroisoquinolin-7-yl}methanesulfonamide]

0X2R agonist activity (3 μM, %): 44%
SMILES: Cc1n[nH]c(=O)c2c1CC[C@H](NS(C)(=O)=O)[C@@H]2Cc1cccc(-c2ccccc2)c1 (racemic) [Example 138, rac-N-{(5R,6S)-5-[([1,1′-biphenyl]-3-yl)methyl]-1-methyl-4-oxo-3,4,5,6,7,8-hexahydrophthalazin-6-yl}methanesulfonamide]

0X2R agonist activity (3 μM, %): 97%
SMILES: CC(C)n1cnc2c(c1=O)[C@@H](Cc1cccc(-c3ccn(C)n3)c1)[C@@H](NS(C)(=O)=O)CC2 (racemic) [Example 117, rac-N-[(5R,6S)-5-{[3-(1-methyl-1H-pyrazol-3-yl)phenyl]-methyl}-4-oxo-3-(propan-2-yl)-3,4,5,6,7,8-hexahydroquinazolin-6-yl]methanesulfonamide]

0X2R agonist activity (3 μM, %): 82%
SMILES: CCS(=O)(=O)NC1CCc2c(C)nn(C)c(=O)c2C1Cc1cccc(-c2ccccc2)c1 (racemic) [Example 97, rac-N-{(5R,6S)-5-[([1,1′-biphenyl]-3-yl)methyl]-1,3-dimethyl-4-oxo-3,4,5,6,7,8-hexahydrophthlalazin-6-yl}ethanesulfonamide]

0X2R agonist activity (3 μM, %): 91%
SMILES: CC(C)n1cnc2c(c1=O)C(Cc1csc(-c3ccccc3)n1)C(NS(=O)(=O)C1(F)CC1)CC2 (stereo not drawn) [Example 194, rel-1-fluoro-N-{4-oxo-5-[(2-phenyl-1,3-thiazol-4-yl)methyl]-3-(propan-2-yl)-3,4,5,6,7,8-hexahydroquinazolin-6-yl}cyclopropane-1-sulfonamide]
